What was measured:
TYK2 = molecular target: T1, TYK2 (Homo sapiens, UniProt P29597); assay: Kinobeads assay, TYK2 (competition binding in mixed Molt4/Ramos cell lysate, dot blot detection); conditions: Kinobeads assay, Molt4/Ramos lysate; read-out: TYK2 Band (Kinobeads assay potency, IC50)
T1 construct: endogenous in cells; host or cells: Molt4 (ATCC CRL-1582) and Ramos (ATCC CRL-1596), mixed lysate 1:2
Method in brief: (§1)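 JAK2 and TYK2 retained on Kinobeads (immobilized aminopyrido-pyrimidine ligand) from 1:2 Molt4:Ramos lysate (10 mg/mL) were quantified by antibody dot blot (Odyssey infrared) after 3 h cold incubation with compound. Nine-step 1:3 dilution series; IC50 calculated from curves.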

JAK2 = molecular target: T2, JAK2 (Homo sapiens, UniProt O60674); assay: Kinobeads assay, JAK2 (competition binding in mixed Molt4/Ramos cell lysate, dot blot detection); conditions: read-out: JAK2 Band (Kinobeads assay potency, IC50)
T2 construct: endogenous in cells; host or cells: Molt4 (ATCC CRL-1582) and Ramos (ATCC CRL-1596), mixed lysate 1:2
T2 sequence (O60674 whole entry): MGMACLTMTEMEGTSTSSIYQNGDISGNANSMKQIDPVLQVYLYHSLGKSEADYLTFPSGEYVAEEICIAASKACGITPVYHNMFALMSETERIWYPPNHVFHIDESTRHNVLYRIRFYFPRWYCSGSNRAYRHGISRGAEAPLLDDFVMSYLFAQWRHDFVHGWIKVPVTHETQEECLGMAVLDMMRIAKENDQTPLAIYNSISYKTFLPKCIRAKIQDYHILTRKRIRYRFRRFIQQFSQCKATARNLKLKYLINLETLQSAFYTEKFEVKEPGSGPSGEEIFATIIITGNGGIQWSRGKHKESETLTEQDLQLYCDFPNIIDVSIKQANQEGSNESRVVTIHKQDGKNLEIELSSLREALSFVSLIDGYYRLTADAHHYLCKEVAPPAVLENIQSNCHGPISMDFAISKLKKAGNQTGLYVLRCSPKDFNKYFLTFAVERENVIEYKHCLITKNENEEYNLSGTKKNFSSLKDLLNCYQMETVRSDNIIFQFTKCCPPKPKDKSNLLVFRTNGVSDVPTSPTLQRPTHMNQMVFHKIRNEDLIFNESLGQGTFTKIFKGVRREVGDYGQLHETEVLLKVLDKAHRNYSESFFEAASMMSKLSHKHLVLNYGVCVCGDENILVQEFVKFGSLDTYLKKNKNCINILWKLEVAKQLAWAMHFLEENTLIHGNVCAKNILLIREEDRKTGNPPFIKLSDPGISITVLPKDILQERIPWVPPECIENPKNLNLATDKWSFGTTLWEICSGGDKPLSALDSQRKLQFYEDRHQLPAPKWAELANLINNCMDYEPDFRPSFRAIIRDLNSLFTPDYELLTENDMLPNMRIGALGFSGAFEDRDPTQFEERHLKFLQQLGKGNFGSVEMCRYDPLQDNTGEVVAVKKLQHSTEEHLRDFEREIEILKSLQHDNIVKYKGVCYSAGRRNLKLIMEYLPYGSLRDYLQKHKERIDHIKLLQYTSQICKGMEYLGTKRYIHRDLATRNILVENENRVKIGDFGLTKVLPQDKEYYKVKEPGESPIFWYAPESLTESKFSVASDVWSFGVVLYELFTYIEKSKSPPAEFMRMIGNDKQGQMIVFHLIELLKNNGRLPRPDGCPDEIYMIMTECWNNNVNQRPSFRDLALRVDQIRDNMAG
Method in brief: as §1

T1 sequence (P29597 whole entry): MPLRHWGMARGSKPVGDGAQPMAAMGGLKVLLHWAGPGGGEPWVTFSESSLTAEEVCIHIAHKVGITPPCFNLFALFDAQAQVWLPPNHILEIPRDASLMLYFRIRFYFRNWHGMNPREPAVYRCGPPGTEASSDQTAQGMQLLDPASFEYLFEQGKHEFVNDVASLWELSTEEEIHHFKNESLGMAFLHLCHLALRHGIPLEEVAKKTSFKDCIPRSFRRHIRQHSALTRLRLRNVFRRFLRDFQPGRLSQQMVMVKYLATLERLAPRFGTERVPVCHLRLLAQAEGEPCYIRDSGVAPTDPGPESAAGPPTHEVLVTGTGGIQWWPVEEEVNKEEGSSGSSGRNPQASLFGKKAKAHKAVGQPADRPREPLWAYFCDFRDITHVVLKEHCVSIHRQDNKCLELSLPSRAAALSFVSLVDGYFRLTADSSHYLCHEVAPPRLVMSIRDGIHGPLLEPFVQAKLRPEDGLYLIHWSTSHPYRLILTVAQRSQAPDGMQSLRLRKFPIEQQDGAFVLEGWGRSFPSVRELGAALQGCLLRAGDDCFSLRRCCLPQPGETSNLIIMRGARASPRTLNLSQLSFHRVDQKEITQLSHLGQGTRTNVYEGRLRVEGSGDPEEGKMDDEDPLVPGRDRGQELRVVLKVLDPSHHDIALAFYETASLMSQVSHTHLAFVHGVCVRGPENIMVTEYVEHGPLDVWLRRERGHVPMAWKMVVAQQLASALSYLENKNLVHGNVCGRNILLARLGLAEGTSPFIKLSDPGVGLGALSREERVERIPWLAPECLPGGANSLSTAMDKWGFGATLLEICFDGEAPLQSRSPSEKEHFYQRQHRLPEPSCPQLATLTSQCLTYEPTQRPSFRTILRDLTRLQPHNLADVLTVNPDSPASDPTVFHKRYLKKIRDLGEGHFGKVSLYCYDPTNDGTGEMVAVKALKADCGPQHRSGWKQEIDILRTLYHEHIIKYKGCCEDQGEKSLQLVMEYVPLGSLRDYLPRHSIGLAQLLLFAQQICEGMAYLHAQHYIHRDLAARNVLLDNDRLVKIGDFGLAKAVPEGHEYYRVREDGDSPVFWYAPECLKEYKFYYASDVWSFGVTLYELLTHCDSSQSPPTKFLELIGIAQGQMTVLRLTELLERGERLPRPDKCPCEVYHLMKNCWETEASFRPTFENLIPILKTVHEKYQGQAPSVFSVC

Structure (SMILES) | IC50 (TYK2) [µM] | IC50 (JAK2) [µM]
Fc1ccc(F)c(CNc2nc(Nc3cnn(CC(F)F)c3)ncc2Cl)c1F [Example I-336] | 0.01 to 0.1 | 0.1 to 1
NC(=O)Cn1cc(Nc2ncc(Cl)c(NCc3ccccc3CO)n2)cn1 [Example I-288] | 0.1 to 1 | 1 to 10
CCOC(=O)Cn1cc(Nc2ncc(F)c(NCc3c(F)ccc(OC)c3F)n2)cn1 [Example I-53] | 0.01 to 0.1 | 1 to 10
CS(=O)(=O)c1ccccc1CNc1nc(Nc2cnn(CC(F)F)c2)ncc1Cl [Example I-471] | 1 to 10 | 1 to 10
CN(Cc1cccc(CNc2nc(Nc3cnn(CCO)c3)ncc2Cl)c1)S(C)(=O)=O [Example I-398] | 0.1 to 1 | 1 to 10
Cc1cnc(Nc2cnn(CC(=O)NC3CCC3)c2)nc1NCc1c(F)cc(F)cc1F [Example I-33] | 0.01 to 0.1 | 1 to 10
Cn1cc(Nc2ncc(Cl)c(NCc3ccccc3)n2)cn1 [Example I-158] | 0.1 to 1 | 1 to 10
Fc1cc(F)c(F)c(CNc2nc(Nc3cnn(CC(F)F)c3)ncc2Cl)c1 [Example I-468] | 0.1 to 1 | 0.1 to 1
NC(=O)Cn1cc(Nc2ncc(F)c(NCc3c(F)cccc3F)n2)cn1 [Example I-380] | 0.01 to 0.1 | 1 to 10
CC(CO)n1cc(Nc2ncc(Cl)c(NCc3ccccc3)n2)cn1 (stereo not drawn) [Example I-361] | 0.1 to 1 | 0.1 to 1
Cc1cnc(Nc2cnn(CC(=O)N3CCOCC3)c2)nc1NCc1c(F)cc(S(N)(=O)=O)cc1F [Example I-378] | ≤ 0.01 | 0.1 to 1
Cc1scnc1Cn1cc(Nc2ncc(Cl)c(NCc3c(F)cccc3F)n2)cn1 [Example I-484] | 0.1 to 1 | 0.1 to 1
CC(C)NC(=O)Cn1cc(Nc2ncc(F)c(NCc3c(F)ccc(F)c3F)n2)cn1 [Example I-455] | ≤ 0.01 | 1 to 10
COc1ccc(F)c(CNc2nc(Nc3cnn(CC(=O)O)c3)ncc2F)c1F [Example I-426] | 0.01 to 0.1 | > 10
COc1ccc(S(C)(=O)=O)cc1CNc1nc(Nc2cnn(C)c2)ncc1F [Example I-446] | 0.01 to 0.1 | 1 to 10
N#C[C@@H]1CCCN1C(=O)Cn1cc(Nc2ncc(Cl)c(NCc3ccccc3)n2)cn1 [Example I-272] | 0.1 to 1 | 1 to 10
O=C(Cn1cc(Nc2nccc(NCc3c(F)cc(F)cc3F)n2)cn1)NC1CC1 [Example I-80] | 0.01 to 0.1 | 1 to 10
Cn1cc(Nc2ncc(Cl)c(NCc3cc(C(F)(F)F)ccc3Cl)n2)cn1 [Example I-278] | 0.1 to 1 | 1 to 10
COc1ccc(F)c(CNc2nc(Nc3cnn(CC(=O)N4CCOCC4)c3)ncc2C)c1F [Example I-22] | ≤ 0.01 | 0.1 to 1
COc1ccc(F)c(CNc2nc(Nc3cnn(C)c3)ncc2C)c1F [Example I-302] | 0.01 to 0.1 | 0.1 to 1
FCCn1cc(Nc2ncc(Cl)c(NCc3ccccc3)n2)cn1 [Example I-461] | 1 to 10 | 1 to 10
CNC(=O)Cn1cc(Nc2ncc(Cl)c(NCc3ccccc3S(=O)(=O)NC)n2)cn1 [Example I-355] | 0.1 to 1 | 0.1 to 1

Structure (SMILES) | IC50 (TYK2) [µM] | IC50 (JAK2) [µM]
N#Cc1c(F)cccc1CNc1nc(Nc2cnn(CCO)c2)ncc1Cl [Example I-287] | 0.1 to 1 | 0.1 to 1
O=C(Cn1cc(Nc2ncc(F)c(NCc3c(F)cc(F)cc3F)n2)cn1)NC1CC1 [Example I-4, N-cyclopropyl-2-(4-((5-fluoro-4-((2,4,6-trifluorobenzyl)amino)pyrimidin-2-yl)amino)-1H-pyrazol-1-yl)acetamide] | 0.01 to 0.1 | 1 to 10
Cc1cccc(F)c1CNc1ccnc(Nc2cnn(CC(=O)N[C@@H](C)CO)c2)n1 [Example I-156] | ≤ 0.01 | 1 to 10
COc1cc(F)c(CNc2nc(Nc3cnn(CC(=O)N4CCOCC4)c3)ncc2C)c(F)c1 [Example I-29] | ≤ 0.01 | 1 to 10
COc1ccccc1CNc1nc(Nc2cnn(C)c2)ncc1Cl [Example I-228] | 0.1 to 1 | 1 to 10
Cn1cc(Nc2ncc(F)c(NCc3c(F)cc(S(N)(=O)=O)cc3F)n2)cn1 [Example I-379] | 0.01 to 0.1 | 1 to 10
CS(=O)(=O)c1ccccc1CNc1nc(Nc2cnn(CC(F)(F)F)c2)ncc1Cl [Example I-475] | 1 to 10 | > 10
COc1ccc(S(C)(=O)=O)cc1CNc1nc(Nc2cnn(CC(F)F)c2)ncc1C [Example I-107] | 0.01 to 0.1 | 0.1 to 1
Cc1cnc(Nc2cnn(CC(=O)NC3CC3)c2)nc1NCc1cccc(F)c1F [Example I-341] | 0.01 to 0.1 | 1 to 10
Cc1cnc(Nc2cnn(C)c2)nc1NCc1c(F)cccc1F [Example I-418] | 0.01 to 0.1 | 0.1 to 1
OCCn1cc(Nc2ncc(Cl)c(NCc3cc(F)cc(C(F)(F)F)c3)n2)cn1 [Example I-181] | 0.1 to 1 | 1 to 10
Cn1cc(Nc2ncc(Cl)c(NCc3c(F)cc(F)cc3F)n2)cn1 [Example I-385] | 0.01 to 0.1 | 1 to 10
CN(C)C(=O)Cn1cc(Nc2ncc(F)c(NCc3cc(F)cc(C(F)(F)F)c3)n2)cn1 [Example I-331] | 0.1 to 1 | 1 to 10
CN(C)CCNC(=O)Cn1cc(Nc2ncc(Cl)c(NCc3ccccc3)n2)cn1 [Example I-221] | 0.1 to 1 | 0.1 to 1
Cc1cnc(Nc2cnn(CC(F)(F)F)c2)nc1NCc1cc(F)cc(F)c1 [Example I-350] | 1 to 10 | 1 to 10
CC(C)(O)Cn1cc(Nc2ncc(Cl)c(NCc3cc(F)ccc3F)n2)cn1 [Example I-292] | 0.1 to 1 | 0.1 to 1
OCCn1cc(Nc2ncc(Cl)c(NCc3c(F)cc(F)cc3F)n2)cn1 [Example I-15] | 0.01 to 0.1 | 0.1 to 1
CNC(=O)Cn1cc(Nc2ncc(Cl)c(NCc3ccccc3F)n2)cn1 [Example I-211] | 0.1 to 1 | 0.1 to 1
CNC(=O)Cn1cc(Nc2ncc(Cl)c(NCc3cc(Br)cc(F)c3F)n2)cn1 [Example I-262] | 0.1 to 1 | 0.1 to 1
Cc1cccc(F)c1CNc1ccnc(Nc2cnn(CC(=O)NC(C)C)c2)n1 [Example I-155] | ≤ 0.01 | 1 to 10
NS(=O)(=O)c1cccc(CNc2nc(Nc3cnn(CCO)c3)ncc2Cl)c1 [Example I-199] | 0.1 to 1 | 1 to 10
Cc1ccc(F)c(CNc2nc(Nc3cn[nH]c3)ncc2Cl)c1F [Example I-371] | 0.01 to 0.1 | 1 to 10

Structure (SMILES) | IC50 (TYK2) [µM] | IC50 (JAK2) [µM]
CC(NC(=O)Cn1cc(Nc2nccc(NCc3c(F)cc(F)cc3F)n2)cn1)C1CCCO1 (stereo not drawn) [Example I-431] | 0.01 to 0.1 | > 10
Cn1cc(Nc2ncc(Cl)c(NCc3cc(S(C)(=O)=O)ccc3F)n2)cn1 [Example I-99] | 0.01 to 0.1 | 0.1 to 1
OCCn1cc(Nc2ncc(Cl)c(NCc3cc(C(F)(F)F)ccc3F)n2)cn1 [Example I-281] | 0.01 to 0.1 | 0.1 to 1
NC(=O)Cn1cc(Nc2nccc(NCc3c(F)cccc3F)n2)cn1 [Example I-313] | 0.01 to 0.1 | 1 to 10
NC(=O)Cn1cc(Nc2ncc(Cl)c(NCc3cccnc3O)n2)cn1 [Example I-405] | 1 to 10 | 1 to 10
COc1ccc(F)c(CNc2ccnc(Nc3cnn(CC(=O)NCC(F)F)c3)n2)c1F [Example I-127] | 0.01 to 0.1 | 1 to 10
CS(=O)(=O)NCc1cccc(CNc2nc(Nc3cnn(CCO)c3)ncc2Cl)c1 [Example I-417] | 0.1 to 1 | 0.1 to 1
O=C(O)Cn1cc(Nc2ncc(F)c(NCc3c(F)cc(F)cc3F)n2)cn1 [Example I-307] | 0.01 to 0.1 | > 10
O=C(Cn1cc(Nc2ncc(Cl)c(NCc3ccccc3)n2)cn1)N1CCOCC1 [Example I-160] | 0.01 to 0.1 | 1 to 10
CS(=O)(=O)c1cccc(CNc2nc(Nc3cnn(CC(=O)NCCO)c3)ncc2Cl)c1 [Example I-441] | 0.1 to 1 | 1 to 10
Cc1cnc(Nc2cnn(CC(=O)N(C)C)c2)nc1NCc1c(F)ccc(F)c1F [Example I-422] | ≤ 0.01 | 0.1 to 1
Cn1cc(Nc2ncc(Cl)c(NCc3cc(F)cc(F)c3)n2)cn1 [Example I-176] | 0.01 to 0.1 | 0.01 to 0.1
CNC(=O)Cn1cc(Nc2ncc(Cl)c(NCc3cccc(OCC#N)c3)n2)cn1 [Example I-364] | 0.1 to 1 | 1 to 10
CNC(=O)Cn1cc(Nc2ncc(Cl)c(NCc3cc(C(F)(F)F)ccc3F)n2)cn1 [Example I-279] | 0.01 to 0.1 | 0.1 to 1
Cc1cnc(Nc2cnn(CCO)c2)nc1NCc1ccccc1S(C)(=O)=O [Example I-433] | 0.1 to 1 | 1 to 10
C[C@@H](CO)NC(=O)Cn1cc(Nc2ncc(F)c(NCc3c(F)cc(F)cc3F)n2)cn1 [Example I-42] | ≤ 0.01 | 1 to 10
CC(C)NC(=O)Cn1cc(Nc2ncc(Cl)c(NCc3c(F)cc(F)cc3F)n2)cn1 [Example I-393] | 0.01 to 0.1 | > 10
COc1ccc(F)c(CNc2nc(Nc3cnn(CC(=O)NC(C)C)c3)ncc2Cl)c1F [Example I-427] | 0.01 to 0.1 | 1 to 10
COc1ccc(F)c(CNc2nc(Nc3cnn(C)c3)ncc2F)c1F [Example I-383] | 0.01 to 0.1 | 1 to 10
CN(C)C(=O)Cn1cc(Nc2ncc(Cl)c(NCc3ccccc3)n2)cn1 [Example I-217] | 0.1 to 1 | 1 to 10
CNC(=O)Cn1cc(Nc2ncc(Cl)c(NCc3c(F)cc(F)cc3F)n2)cn1 [Example I-388] | 0.01 to 0.1 | 1 to 10
CC(O)Cn1cc(Nc2ncc(Cl)c(NCc3cccc(F)c3F)n2)cn1 (stereo not drawn) [Example I-215] | 0.1 to 1 | 0.1 to 1
